# In US20060094645A1, “Method for defining and treating chemically-induced immune disorders using tumor necrosis factor (TFNalpha), interleukin-1 (lL-1), and interleulin-6R(lL-6R) antagonists” (priority 2004, published 2006):
# Biological target: T1, TNF (Homo sapiens, UniProt P01375)
# T1 construct: endogenous in cells; host or cells: the patients' own TNF in vivo
# Test: Case report: Arthritis and Vasculitis associated with silicone breast implants, anti-TNF treatment
# Format: in vivo
# Conditions: patient after implant removal; earlier treatment for over 20 years with corticosteroids and methotrexate
# T1 sequence (P01375 77-233 limits assumed): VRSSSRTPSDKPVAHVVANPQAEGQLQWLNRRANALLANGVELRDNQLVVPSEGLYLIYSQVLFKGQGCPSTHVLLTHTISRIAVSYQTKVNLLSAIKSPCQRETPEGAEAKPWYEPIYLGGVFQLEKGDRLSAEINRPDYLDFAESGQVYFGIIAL
smiles,measurement,value
CN(Cc1cnc2nc(N)nc(N)c2n1)c1ccc(C(=O)N[C@@H](CCC(=O)O)C(=O)O)cc1 [methotrexate],outcome of Arthritis and Vasculitis associated with silicone breast implants,without success
